The results in this text go back to patent publication US6589971B1, “Bis-benzazoles and their use as antineoplastic agents” (The Queens University of Belfast, priority 1999, dated 2003).

For orientation: IC50 means the concentration at which inhibition is half-maximal.

Series [1] concerns A/T sites of a natural DNA fragment. The series can be described thus: DNase I footprinting with a natural DNA fragment. Type of series: binding. The following applies: for DNA site preference: natural DNA fragment. From the text: The ability of the head-to-head bis-benzimidazoles to discriminate between the 136 possible tetranucleotide sequences may be further enhanced by flanking sequence preferences. These remain to be systematically explored.

In another series the test system is CH1. The series can be described thus: Cytotoxicity (growth inhibition), 96 hour exposure, ovarian cell line panel. The following applies: read-out: Cytotoxicity IC50, CH1.
Another series deals with A2780-PT^R. Described as above. The following applies: read-out: Cytotoxicity IC50, A2780-PT^R.
For another series, the system named is A2780. Described as above. The following applies: read-out: Cytotoxicity IC50, A2780.
The subject of another series is SKOV-3. The description is as above. The following applies: read-out: Cytotoxicity IC50, SKOV-3, SKOV-3 ovarian cell line.
A further series concerns MCF-7 (breast). Nature of the series: Growth inhibition, carcinoma cell lines (MTT assay or cell counting). Format: cell-based. The conditions noted are these: 96 hour exposure, repeat determinations. Here is the method:
Compounds 8 and 13 were then tested more extensively against a range of carcinoma cell lines: MCF-7 (breast,); RKO and H630 (colon); A2780 and OAW42 (ovary) and H838 (lung).
Figures in bold were determined using cell counting method, all other values by the MTT assay.
The growth inhibition assays reported above were carried out using standard techniques, some examples of which are detailed below.

The test system of series [2] is ovarian lines in the NCI 60-cell line panel. Nature of the series: NCI 60-cell line panel. Format: cell-based. The conditions noted are these: several ovarian lines.
For series [3], the system named is ovarian carcinoma cell lines. Nature of the series: Cytotoxicity across the group of four ovarian carcinoma cell lines. Format: cell-based, human. The following applies: versus compounds 8 and 9; in three out of the four lines.
Description: Assessment of growth inhibition was performed in a small panel of (e.g.) human ovarian carcinoma cell lines using the Sulforhodamine B (SRB assay) (Kelland et al, Cancer Research 54, 5618-5622 (1994). The cell lines grew as monolayers in Dulbecco's Modified Eagle's medium containing 10% foetal bovine serum (Imperial Laboratories, Andover, UK) supplemented with 2 mM glutamine and 0.5 μg/ml hydrocortisone in 6% CO2/94% air. The compound to be tested was dissolved in 10% dimethylsulfoxide. Cells were seeded into 96-well microtitre plates at 3000-5000 per well and allowed to attach overnight. Serial dilutions of drug in growth medium were then added to quadruplicate wells (with 8 control untreated wells) and left to incubate under normal growth conditions for 96 hr, unless otherwise stated. The medium was then removed and wells fixed with 10% trichloroacetic acid and stained with 0.4% SRB in 1% acetic acid as described previously (Kelland et al ref). Basic amino acid content in each well was then measured by solubilizing the bound SRB with 10 mM Tris and using a Titertek Multiscan MCC/340 MKII plate reader set at 540 nm. Mean absorbance was then expressed as a percentage of the control untreated well absorbance and plotted vs drug concentration. […]
Series [4] relates to transcription at A/T sites. Nature of the series: In vitro transcription assay. Type of series: biochemical. The text has this: Compound (13) has been examined in an in vitro transcription assay. […] In addition, compound (13) inhibited transcription at least 10-fold more efficiently than compound (9), consistent with its increased cytoxicity. It is thus tempting to speculate that the activity of (13) in vitro and in vivo may be related to its potent ability to inhibit transcription specifically at a small sub-set of A/T sites.

“And” between values parts separate entries of the source, which are not always exact repeats. Equal entries are not always repeated.

Description for A2780-PT^R: (§1) Assessment of growth inhibition was performed in a small panel of (e.g.) human ovarian carcinoma cell lines using the Sulforhodamine B (SRB assay) (Kelland et al, Cancer Research 54, 5618-5622 (1994). The cell lines grew as monolayers in Dulbecco's Modified Eagle's medium containing 10% foetal bovine serum (Imperial Laboratories, Andover, UK) supplemented with 2 mM glutamine and 0.5 μg/ml hydrocortisone in 6% CO2/94% air. The compound to be tested was dissolved in 10% dimethylsulfoxide. Cells were seeded into 96-well microtitre plates at 3000-5000 per well and allowed to attach overnight. Serial dilutions of drug in growth medium were then added to quadruplicate wells (with 8 control untreated wells) and left to incubate under normal growth conditions for 96 hr, unless otherwise stated. The medium was then removed and wells fixed with 10% trichloroacetic acid and stained with 0.4% SRB in 1% acetic acid as described previously (Kelland et al ref). Basic amino acid content in each well was then measured by solubilizing the bound SRB with 10 mM Tris and using a Titertek Multiscan MCC/340 MKII plate reader set at 540 nm. Mean absorbance was then expressed as a percentage of the control untreated well absorbance and plotted vs drug concentration. Comparisons were made in terms of IC50 values, (the concentration that reduced the mean absorbance to 50% of those in control wells) and Resistance Factors (RF, the IC50 in a resistant subline vs its parent line).
Description for CH1: as §1
Description for SKOV-3: as §1

`Oc1ccc(-c2nc3cc(-c4ccc5[nH]c(-c6ccc(O)cc6)nc5c4)ccc3[nH]2)cc1` [Compound 9, 4′,4′-[5,5-bi-1H-Benzimidazole]-2,2-diylbis-phenol]: the DNA site preference result in series [1] was “interact preferentially with some A/T sites”. Also, the IC50 was determined as 1.05 µM with CH1, 2.7 µM with A2780-PT^R, 4.3 µM in the series on A2780 and 16 µM with SKOV-3.
Turning to `CN1CCN(c2ccc3[nH]c(-c4ccc5[nH]c(-c6ccc(O)cc6)nc5c4)nc3c2)CC1` [Hoechst 33258, reference compound], the IC50 is 26.5 µM with CH1, 9.5 µM in the series on A2780-PT^R, 12 µM in the series with A2780 and above 100 µM in the series with SKOV-3.
For the molecule `CN(C)CCCOc1ccc(-c2nc3cc(-c4ccc5[nH]c(-c6ccc(OCCCN(C)C)cc6)nc5c4)ccc3[nH]2)cc1` [Compound 13, 2,2-bis-[4′-(3″-Dimethylamino-1″-propyloxy)phenyl]-5,5-bi-1H-benzimidazole], the “affinity for 5′-TATA sites” value in series [1] (5′-TATA sites) is recorded as “relatively low affinity”. Further, the DNA site preference result in series [1] is “interact preferentially with some A/T sites”. The Kd in [1] (quantitative DNase I footprinting, 5′-AATT site, read-out: affinity for the 5′-AATT site) came to 0.03 µM. For the same molecule, the “binding to AT-sites, fold better than compound (9)” value in series [1] (relative to compound (9)) is recorded as 7-10 fold. The IC50 in the series on CH1 was 0.24 µM; in the series with MCF-7 (breast), 0.043 µM and 0.069 µM; with A2780-PT^R it was 0.115 µM; with A2780 it was 0.235 µM; in the series on SKOV-3, 0.375 µM. For the same molecule, the “activity in ovarian lines of NCI 60-cell line panel” value in series [2] is listed as “significant activity”. Moreover, the “cytotoxic activity, fold more active than the others” value in series [3] is on record as “over 10 fold”. In addition, the inhibition of transcription entry in [4] (at a number of A/T sites) is reported as “effectively inhibits transcription at a number of A/T sites”. Besides, the “inhibition of transcription, fold more efficient than compound (9)” value in [4] (relative to compound (9)) is given as “at least 10 fold”.
